Literature values as cited in patent US5541094A, “Glyoxylic acid/aminomethylphosphonic acid mixtures prepared using a microbial transformant” (E. I. du Pont de Nemours and Company, priority 1994, dated 1996).

System: glycolate oxidase
Settings: 100 mM; enzyme extracted from tobacco leaves

In the case of `O=C(O)C(=O)O` [Oxalic acid], the “inhibition of the catalytic action of the glycolate oxidase” value is listed as “inhibit the catalytic action of the glycolate oxidase”.
